In patent publication US9669025B2 (INFLAMMATORY RESPONSE RESEARCH, INC., priority 2013, dated 2017):
Like-named read-outs stand apart in the source and are kept apart here.

Tests used:
Henoch Schonlein Purpura = assay: Example 2 case study: person with Henoch Schonlein Purpura; format: in vivo, human; conditions: before the combination; ibuprofen and diphenhydramine
Excerpt: Case Study: person with Henoch Schonlein Purpura The patient is a person originally seen and evaluated in London, England, Feb. […] […] The ibuprofen and diphenhydramine were discontinued.

[1] = test system: Churg-Strauss Syndrome (eosinophilic vasculitis); assay: Example 1 case study: person with Churg-Strauss Syndrome; format: in vivo, human; conditions: 2010, patient history
human rhinovirus = conditions: airway epithelial cells; cited from earlier work
eosinophil migration = conditions: cited from earlier work
IL-4, IL-6, and IL-8 = conditions: cited from earlier work
[2] = test system: histamine induced wheal and flare; conditions: cited from earlier work
[3] = cited from earlier work
[4] = in vivo; cited from earlier work
H1 receptor = H1 receptor (Homo sapiens, UniProt P35367); conditions: acidic pH (inflamed tissue), relative to first generation molecules, cited from earlier work
Sequence of H1 receptor (P35367 whole entry): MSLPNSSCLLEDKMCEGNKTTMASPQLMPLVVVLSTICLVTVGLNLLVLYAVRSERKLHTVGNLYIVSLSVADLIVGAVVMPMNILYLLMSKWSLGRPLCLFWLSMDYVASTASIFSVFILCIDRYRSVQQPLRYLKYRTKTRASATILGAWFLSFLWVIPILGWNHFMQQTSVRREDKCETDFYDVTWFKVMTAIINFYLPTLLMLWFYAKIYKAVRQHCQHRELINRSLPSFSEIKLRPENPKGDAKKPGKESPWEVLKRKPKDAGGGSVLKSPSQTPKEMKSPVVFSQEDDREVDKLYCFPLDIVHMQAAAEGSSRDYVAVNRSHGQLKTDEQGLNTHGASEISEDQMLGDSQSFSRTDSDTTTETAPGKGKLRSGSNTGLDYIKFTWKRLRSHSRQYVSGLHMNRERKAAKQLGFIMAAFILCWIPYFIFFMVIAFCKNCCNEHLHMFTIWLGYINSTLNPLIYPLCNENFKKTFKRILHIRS

[5] = cited from earlier work; remark: listed apart in the source
[6] = cited from earlier work; for time to steady state level: montelukast
[7] = with warfarin, theophylline, digoxin, terfenadine, oral contraceptives, or prednisone; cited from earlier work
influenza = conditions: 2009 H1N1 pandemic; cited from earlier work

CC(C)Cc1ccc(C(C)C(=O)O)cc1 (centres unmarked) [ibuprofen]
response of recurrent Henoch Schonlein Purpura (Henoch Schonlein Purpura): poorly responsive

omalizumab
trial for severe asthma [1]: Unsuccessful

O=C(O)COCCN1CCN([C@H](c2ccccc2)c2ccc(Cl)cc2)CC1 [levocetirizine]
rhinovirus-induced ICAM-1 and cytokine expression and viral replication (human rhinovirus): inhibits | eosinophil migration / quantity (eosinophil migration): decrease | inflammatory mediators, IL-4, IL-6, and IL-8 (IL-4, IL-6, and IL-8): decrease | potency among the five modern generation antihistamines ([2]; histamine induced wheal and flare data): most potent | effectiveness versus fexofenadine ([2]; levocetirizine 5 mg per day vs fexofenadine 180 mg per day): more effective than fexofenadine | principal side effect at higher doses ([3]; higher doses): Sedation | doses safely administered in humans ([3]; human dosing safety studies): up to 30 mg/day | time to steady state level [4]: 40 h | enhanced receptor affinity over first generation mepyramine (H1 receptor): up to 5 × | enhanced receptor affinity over first generation mepyramine (H1 receptor; listed as Levocetirizine): 5 ×

CC(C)(O)c1ccccc1CC[C@@H](SCC1(CC(=O)O)CC1)c1cccc(/C=C/c2ccc3ccc(Cl)cc3n2)c1 [montelukast]
doses administered without clinically important adverse experiences ([5]; adult patients for 22 weeks): up to 200 mg/day | doses administered without clinically important adverse experiences ([5]; short-term studies, patients for approximately one week): up to 900 mg/day | IV plasma concentration area under the curve profile versus oral tablet ([6]; IV 7 mg vs approved 10 mg oral tablet): comparable | linearity of pharmacokinetics ([6]; in vivo): linear pharmacokinetics to 50 mg | time to peak plasma concentration ([6]; in vivo): 3 to 4 h | time to steady state level [6]: within two days | time to steady state level ([6]; listed as Montelukast): less than two days | effect of a standard meal on oral bioavailability and Cmax ([6]; standard meal): not affected | drug interactions [7]: no drug interactions

CN(C)CCOC(c1ccccc1)c1ccccc1 [diphenhydramine]
response of recurrent Henoch Schonlein Purpura (Henoch Schonlein Purpura): poorly responsive

CCOC(=O)C1=C[C@@H](OC(CC)CC)[C@H](NC(C)=O)[C@@H](N)C1 [oseltamivir]
influenza related lower respiratory tract complications (influenza): did not appear to reduce
